Converted amounts (≈) assume the structure as drawn. Like-named read-outs stand apart in the source and are kept apart here. Marks after values point to notes of the source that are not given here. Where a SMILES comes first, the peptide text is derived from it. [ ]: non-standard residue; d: D form. The star is where a group is joined. Phe(4-NO2) = N[C@@H](Cc1ccc([N+](=O)[O-])cc1)C(=O)O; Phe(4-NH2) = Nc1ccc(C[C@H](N)C(=O)O)cc1; 4Abz = Nc1ccc(C(=O)O)cc1; Propionyl = CCC(=O)*; Bz = O=C(c1ccccc1)*
Assays:
HBV DNA replication = assay: In vitro anti-HBV: inhibition of HBV DNA replication in 2.2.15 cells (dot blot); format: cell-based, hepatitis B virus; conditions: day 8, dot blot; for IC50: Hepatitis B virus, 192 h
Experimental: (§1) Cell control wells were simultaneously set up. […] IC50 and SI were calculated, respectively.

2.2.15 cells = assay: Cytotoxicity (TC50, median toxic concentration) in 2.2.15 cells; format: cell-based
Experimental: as §1

DHBV-DNA = assay: In vivo inhibition of DHBV-DNA in DHBV-infected ducklings; conditions: intraperitoneal daily
Excerpt: Test compounds: the compound prepared in Example 75
Test method: One-day-old ducklings were infected with serum containing DHBV positive virus (about 10^8-9 virions/ml). After a week, blood was collected and tested. The successfully transfected ducklings were randomly divided into three to five groups. Blank group, positive control group and treatment group(s) (one to three groups) were subjected to treatment tests. The treatment groups were divided into high, median and low dose groups. Intraperitoneal injection was carried out daily for ten days. Physiological saline was used to replace drugs in the blank group. Lamivudine was administered in the positive control group. […] Serum was separated and kept at −70° C. for tests. Duck hepatitis B virus surface antigen (DHBsAg) was assayed with DHBsAg dot molecular hybridization (DOT EIA). Duck hepatitis B virus deoxyribonucleic acid (DHBV DNA) contents in serum and duck livers were assayed with dot blot hybridization.

HBeAg = conditions: 2.2.15 cells, day 8, RIA
Experimental: Test Principle: • 2.2.15 cells were used as a vector of hepatitis B virus. Samples were assayed for their abilities to inhibit NBV to carry out DNA replication and to produce HBsAg and HBeAg.
Test Materials and Method: • a. cell line: 2.2.15 cells; • b. treatment of samples: A sample was dissolved in DMSO in a suitable concentration right before use. The resulting solution was diluted in triple folds with culture media. […] After 36 hours, samples and positive controls in the above dilutions were added into the wells. Cell control wells were simultaneously set up. Culture media were replaced with fresh culture media containing samples in different dilutions, respectively, after 96 hours of addition of samples and positive controls. At the eighth day of addition of samples and positive controls, cell supernatants and 2.2.15 cells were harvested, respectively. Secretory volumes of HBsAg and HBeAg in the cell supernatants were assayed with the RIA method. The degree of HBV DNA replication in the cells was assayed with dot blot method. IC50 and SI were calculated, respectively.

HBsAg = assay: In vitro anti-HBV: inhibition of HBsAg secretion in 2.2.15 cell supernatant (RIA); format: cell-based, hepatitis B virus; conditions: for IC50: Hepatitis B virus, 192 h, read-out: Inhibition of HBsAg IC50
Experimental: Test Principle: • 2.2.15 cells were used as a vector of hepatitis B virus. Samples were assayed for their abilities to inhibit […] to carry out DNA replication and to produce HBsAg and HBeAg.
Test Materials and Method: • a. cell line: 2.2.15 cells; • b. treatment of samples: A sample was dissolved in DMSO in a suitable concentration right before use. The resulting solution was diluted in triple folds with culture media. There are eight dilutions. • c. positive control: Lamivudine (3TC) produced by Glaxo Wellcome; • d. reagents: radioimmunological kits of e antigen and s antigen of hepatitis B virus, α^32PdCTP; • e. test method: 2.2.15 cells were seeded in a 96-well microplate. After 36 hours, samples and positive controls in the above dilutions were added into the wells. Cell control wells were simultaneously set up. Culture media were replaced with fresh culture media containing samples in different dilutions, respectively, after 96 hours of addition of samples and positive controls. At the eighth day of addition of samples and positive controls, cell supernatants and 2.2.15 cells were harvested, respectively. Secretory volumes of HBsAg and HBeAg in the cell supernatants were assayed with the RIA method. The degree of HBV DNA replication in the cells was assayed with dot blot method. IC50 and SI were calculated, respectively.

[1] = 50.0 mg/kg, 3rd Day of Withdrawal
[2] = 12.5 mg/kg, 3rd Day of Withdrawal
[3] = 25.0 mg/kg, 3rd Day of Withdrawal

Nc1ccn([C@@H]2CS[C@H](CO)O2)c(=O)n1 [Example 3TC, Lamivudine, reference compound]
IC50 (HBV DNA replication): 18.9 µg/mL (≈ 82.4 µM) | TC50 (2.2.15 cells): 786.00 µg/mL (≈ 3430 µM) | Inhibition Ratio (DHBV-DNA; [1]): 0.3 | OD Value (DHBV-DNA; [1]): 1.54 | Inhibition Ratio (DHBV-DNA; 50.0 mg/kg, 5th Day of Test): 53.71^d | OD Value (DHBV-DNA; 50.0 mg/kg, 5th Day of Test): 0.73^b | Inhibition Ratio (DHBV-DNA; 50.0 mg/kg, 10th Day of Test): 57.22^d | OD Value (DHBV-DNA; 50.0 mg/kg, 10th Day of Test): 0.68^b

CN(C)CCOc1ccc(C[C@H](NC(=O)c2ccccc2)C(=O)N[C@H](CO)Cc2ccccc2)cc1.Cl [Example 75, N-[N-berizoyl-O-(2-dimethylamino-ethyl)-L-tyrosyl]-L-phenylalaninol hydrochloride]
Inhibition of DNA Replication IC50 (HBV DNA replication): 2.41 µg/mL | TC50 (2.2.15 cells): 388.03 µg/mL | Inhibition of HBeAg IC50 (HBeAg): 13.51 µg/mL | Inhibition of HBsAg IC50 (HBsAg; 2.2.15 cells, day 8, RIA): 33.51 µg/mL | Inhibition Ratio (DHBV-DNA; [2]): 9.23 | OD Value (DHBV-DNA; [2]): 1.09 | Inhibition Ratio (DHBV-DNA; 12.5 mg/kg, 5th Day of Test): 12.87 | OD Value (DHBV-DNA; 12.5 mg/kg, 5th Day of Test): 1.11 | Inhibition Ratio (DHBV-DNA; 12.5 mg/kg, 10th Day of Test): 12.92^a | OD Value (DHBV-DNA; 12.5 mg/kg, 10th Day of Test): 1.11^a | Inhibition Ratio (DHBV-DNA; [3]): 38.12^d | OD Value (DHBV-DNA; [3]): 0.87^b | Inhibition Ratio (DHBV-DNA; 25.0 mg/kg, 5th Day of Test): 18.67^c | OD Value (DHBV-DNA; 25.0 mg/kg, 5th Day of Test): 1.15^a | Inhibition Ratio (DHBV-DNA; 25.0 mg/kg, 10th Day of Test): 32.91^d | OD Value (DHBV-DNA; 25.0 mg/kg, 10th Day of Test): 0.95^b | Inhibition Ratio (DHBV-DNA; [1]): 42.30^d | OD Value (DHBV-DNA; [1]): 0.83^b | Inhibition Ratio (DHBV-DNA; 50.0 mg/kg, 5th Day of Test): 36.43^c | OD Value (DHBV-DNA; 50.0 mg/kg, 5th Day of Test): 0.94^a | Inhibition Ratio (DHBV-DNA; 50.0 mg/kg, 10th Day of Test): 54.62^d | OD Value (DHBV-DNA; 50.0 mg/kg, 10th Day of Test): 0.73^b

CCCCOc1ccc(C[C@H](NC(=O)[C@H](Cc2ccccc2)NC(=O)c2ccccc2)C(=O)[O-])cc1.[Na+] [Example 74, N-(N-benzoyl-L-phenylalanyl)-O-n-butyl-L-tyrosine sodium salt]
IC50 (HBV DNA replication): 33 µg/mL | TC50 (2.2.15 cells): >500 µg/mL | IC50 (HBsAg; 2.2.15 cells, day 8, RIA): 25.2 µg/mL

O=C(N[C@@H](Cc1ccc(OCO)cc1)C(=O)N[C@H](CO)Cc1ccccc1)c1ccccc1.[Na] [Example 80, N-[N-benzoyl-O-hydroxymethyl-L-tyrosyl]-L-phenylalaninol sodium salt]
IC50 (HBV DNA replication): 27.3 µg/mL | TC50 (2.2.15 cells): 388.03 µg/mL | IC50 (HBsAg): 150 µg/mL

CCC(=O)Nc1ccc(C(=O)N[C@@H](Cc2ccccc2)C(=O)N[C@@H](Cc2ccccc2)C(=O)OC)cc1 [Example 37, methyl N-[N-(4-propionamido-benzoyl)-L-phenylalanyl]-L-phenylalaninate] ({Propionyl-4Abz}-Phe-Phe-OMe)
IC50 (HBV DNA replication): 1.43 µg/mL (≈ 2.85 µM) | TC50 (2.2.15 cells): 129.34 µg/mL (≈ 258 µM) | melting point: 225 to 227 °C

CC(=O)Nc1ccc(C[C@H](NC(=O)c2ccccc2)C(=O)N[C@@H](Cc2ccccc2)C(=O)O)cc1 [Example 87, N-(N-benzoyl-4-acetamido-L-phenylalanyl)-L-phenylalanine] (Bz-[Phe(4-NH2)](Ac)-Phe-OH)
IC50 (HBV DNA replication): 1.81 µg/mL (≈ 3.82 µM) | TC50 (2.2.15 cells): 43.11 µg/mL (≈ 91 µM) | melting point: 233.5 to 235.5 °C

COC(=O)[C@H](Cc1ccc(O)cc1)NC(=O)[C@H](Cc1ccccc1)NC(=O)c1ccc(NC(C)=O)cc1 [Example 36, methyl N-[N-(4-acetamido-benzoyl)-L-phenylalanyl]-L-tyrosinate] (Ac-[4Abz]-Phe-Tyr-OMe)
IC50 (HBV DNA replication): 4.56 µg/mL (≈ 9.06 µM) | TC50 (2.2.15 cells): 388.03 µg/mL (≈ 771 µM) | melting point: 215.5 to 217 °C

COC(=O)[C@H](Cc1ccc(O)cc1)NC(=O)[C@H](Cc1ccc([N+](=O)[O-])cc1)NC(=O)c1ccccc1 [Example 14, methyl N-(N-benzoyl-4-nitro-L-phenylalanyl)-L-tyrosinate] (Bz-[Phe(4-NO2)]-Tyr-OMe)
IC50 (HBV DNA replication): 1.16 µg/mL (≈ 2.36 µM) | TC50 (2.2.15 cells): 53.42 µg/mL (≈ 109 µM) | melting point: 200 to 202 °C

COC(=O)[C@H](Cc1ccccc1)NC(=O)[C@H](Cc1ccc(O)cc1)NC(=O)c1ccc(Cl)cc1 [Example 20, methyl N-(N-4-chloro-benzoyl-L-tyrosyl)-L-phenylalaninate]
IC50 (HBV DNA replication): 48.5 µg/mL (≈ 101 µM) | TC50 (2.2.15 cells): 198.46 µg/mL (≈ 413 µM) | melting point: 203.5 to 205 °C

— patent US9023809B2, “Phenylalanine dipeptide derivatives, compositions and use thereof” (The Key Laboratory of Chemistry For Natural Products of …, priority 2008, dated 2015)
